Experimental data taken from ChEMBL document CHEMBL1155392, “New adjuvants to enhance anticoagulant activity of warfarin” (Bioorg Med Chem Lett, 2010).
The source made the active and inactive calls. No cut-off for these calls is given here.

Assays:
Rattus norvegicus [1] = test: Anticoagulant activity in Sprague-Dawley rat assessed as change in factor 7 content in blood at 0.25 mg/kg, po after 4 days (reference value: 400%+/-33.2%); format: functional
Rattus norvegicus [2] = test: Anticoagulant activity in Sprague-Dawley rat assessed as change in prothrombin time at 0.25 mg/kg, po after 10 days (Rvb=12.9+/-0.7 sec); format: functional
Rattus norvegicus [3] = test: Anticoagulant activity in Sprague-Dawley rat assessed as change in factor 7 content in blood at 0.25 mg/kg, po after 10 days (reference value: 321.3%+/-14.7 %); format: functional
Rattus norvegicus [4] = test: Anticoagulant activity in Sprague-Dawley rat assessed as change in factor 10 content in blood at 0.25 mg/kg, po after 4 days (reference value: 60.6%+/-3.0 %); format: functional
Rattus norvegicus [5] = test: Anticoagulant activity in Sprague-Dawley rat assessed as change in prothrombin time at 0.25 mg/kg, po after 4 days ([…]); format: functional
Rattus norvegicus [6] = test: Anticoagulant activity in Sprague-Dawley rat assessed as change in factor 10 content in blood at 0.25 mg/kg, po after 10 days (reference value: 58.1%+/-1.8 %); format: functional
Rattus norvegicus [7] = test: Anticoagulant activity in Sprague-Dawley rat assessed as change in prothrombin time at 2.5 mg/kg, po after 10 days (Rvb=12.9+/-0.7 sec); format: functional
Rattus norvegicus [8] = test: Potentiation of warfarin-induced anticoagulant activity in Sprague-Dawley rat assessed as change in factor 10 level at 2.5 mg/kg, po after 10 days (Rvb =58.1%+/-1.8%); format: functional
Rattus norvegicus [9] = test: Anticoagulant activity in Sprague-Dawley rat assessed as change in factor 7 content in blood at 2.5 mg/kg, po after 4 days (reference value: 400%+/-33.2%); format: functional
Rattus norvegicus [10] = species: Rattus norvegicus; test: Cytotoxicity in Sprague-Dawley rat; format: organism-based; settings: in vivo
Rattus norvegicus [11] = test: Anticoagulant activity in Sprague-Dawley rat assessed as change in factor 10 content in blood at 0.025 mg/kg, po after 10 days (reference value: 58.1%+/-1.8 %); format: functional
Rattus norvegicus [12] = test: Potentiation of warfarin-induced anticoagulant activity in Sprague-Dawley rat assessed as change in factor 7 level at 2.5 mg/kg, po after 4 days (reference value: 400 %+/-33.2%); format: functional
Rattus norvegicus [13] = test: Potentiation of warfarin-induced anticoagulant activity in Sprague-Dawley rat assessed as change in factor 7 level at 2.5 mg/kg, po after 10 days (reference value: 321.3 %+/-14.7%); format: functional
Rattus norvegicus [14] = test: Anticoagulant activity in Sprague-Dawley rat assessed as reduction factor 7 content in blood at 2.5 mg/kg, po after 10 days (reference value: 321.3%+/-14.7 %); format: functional; parameters: scale not given: the % may be the effect or the level left
Rattus norvegicus [15] = test: Potentiation of warfarin-induced anticoagulant activity in Sprague-Dawley rat assessed as change in factor 10 level at 2.5 mg/kg, po after 4 days (Rvb =60.6%+/-3.0%); format: functional
Rattus norvegicus [16] = test: Anticoagulant activity in Sprague-Dawley rat assessed as change in prothrombin time at 0.025 mg/kg, po after 10 days ([…]); format: functional
Rattus norvegicus [17] = test: Anticoagulant activity in Sprague-Dawley rat assessed as change in factor 10 content in blood at 2.5 mg/kg, po after 10 days (reference value: 58.1%+/-1.8 %); format: functional
Rattus norvegicus [18] = test: Anticoagulant activity in Sprague-Dawley rat assessed as change in prothrombin time at 0.025 mg/kg, po after 4 days (Rvb=12.8+/-0.5 sec); format: functional
Rattus norvegicus [19] = test: Anticoagulant activity in orally dosed Sprague-Dawley rat; format: functional, organism-based
Rattus norvegicus [20] = test: Anticoagulant activity in Sprague-Dawley rat assessed as change in factor 10 content in blood at 2.5 mg/kg, po after 4 days (reference value: 60.6%+/-3.0 %); format: functional
Rattus norvegicus [21] = test: Anticoagulant activity in Sprague-Dawley rat assessed as change in prothrombin time at 2.5 mg/kg, po after 4 days ([…]); format: functional
Rattus norvegicus [22] = test: Anticoagulant activity in Sprague-Dawley rat assessed as change in factor 7 content in blood at 0.025 mg/kg, po after 10 days (reference value: 321.3%+/-14.7 %); format: functional
Rattus norvegicus [23] = test: Anticoagulant activity in Sprague-Dawley rat assessed as change in factor 7 content in blood at 0.025 mg/kg, po after 4 days (reference value: 400%+/-33.2%); format: functional
Rattus norvegicus [24] = test: Potentiation of warfarin-induced anticoagulant activity in Sprague-Dawley rat assessed as change in prothrombin time at 2.5 mg/kg, po after 4 days (Rvb= 12.8+/-0.5 sec); format: functional
Rattus norvegicus [25] = test: Anticoagulant activity in Sprague-Dawley rat assessed as change in factor 10 content in blood at 0.025 mg/kg, po after 4 days (reference value: 60.6%+/-3.0 %); format: functional
Rattus norvegicus [26] = test: Potentiation of warfarin-induced anticoagulant activity in Sprague-Dawley rat assessed as change in prothrombin time at 2.5 mg/kg, po after 10 days (Rvb= 12.9+/-0.7 sec); format: functional

## CC(=O)CC(c1ccccc1)c1c(O)c2ccccc2oc1=O (stereo not drawn) [WARFARIN]
Rattus norvegicus [1]
  Activity: 29.5%
Rattus norvegicus [2]
  PT: 24.4 s
Rattus norvegicus [3]
  Activity: 56.2%
Rattus norvegicus [4]
  Activity: 10%
Rattus norvegicus [5]
  PT: 37 s
Rattus norvegicus [6]
  Activity: 14.9%

## CC(=O)Oc1c2c(c(OC(C)=O)c3ccccc13)[C@]1(C)C=C[C@]2(C)C1
Rattus norvegicus [1]
  Activity: 351.3%
Rattus norvegicus [7]
  PT: 11.6 s
Rattus norvegicus [8]
  Activity: 7.7%
Rattus norvegicus [9]
  Activity: 370.8%
Rattus norvegicus [10]
  Activity: Not Active
Rattus norvegicus [11]
  Activity: 68%
Rattus norvegicus [2]
  PT: 11.7 s
Rattus norvegicus [12]
  Activity: 20.3%
Rattus norvegicus [13]
  Activity: 35%
Rattus norvegicus [14]
  Activity: 286.8%
Rattus norvegicus [3]
  Activity: 304.7%
Rattus norvegicus [4]
  Activity: 65.3%
Rattus norvegicus [15]
  Activity: 4.8%
Rattus norvegicus [5]
  PT: 11.6 s
Rattus norvegicus [16]
  PT: 11.4 s
Rattus norvegicus [17]
  Activity: 61%
Rattus norvegicus [18]
  PT: 11.2 s
Rattus norvegicus [19]
  Activity: inactive
Rattus norvegicus [20]
  Activity: 64.3%
Rattus norvegicus [21]
  PT: 11.8 s
Rattus norvegicus [22]
  Activity: 364%
Rattus norvegicus [23]
  Activity: 346.8%
Rattus norvegicus [6]
  Activity: 61.2%
Rattus norvegicus [24]
  PT: 40.5 s
Rattus norvegicus [25]
  Activity: 74.5%
Rattus norvegicus [26]
  PT: 35.4 s

## CC(=O)Oc1c2c(c(OC(C)=O)c3ccccc13)[C@@]1(C)C[C@]2(C)[C@]2(C)O[C@@]21C
Rattus norvegicus [1]
  Activity: 334.3%
Rattus norvegicus [7]
  PT: 11.6 s
Rattus norvegicus [8]
  Activity: 3.6%
Rattus norvegicus [9]
  Activity: 395.5%
Rattus norvegicus [10]
  Activity: Not Active
Rattus norvegicus [11]
  Activity: 64.2%
Rattus norvegicus [2]
  PT: 11.6 s
Rattus norvegicus [12]
  Activity: 264%
Rattus norvegicus [13]
  Activity: 18.4%
Rattus norvegicus [14]
  Activity: 285.8%
Rattus norvegicus [3]
  Activity: 295.2%
Rattus norvegicus [4]
  Activity: 61%
Rattus norvegicus [15]
  Activity: 58.8%
Rattus norvegicus [5]
  PT: 11.6 s
Rattus norvegicus [16]
  PT: 11.6 s
Rattus norvegicus [17]
  Activity: 61%
Rattus norvegicus [18]
  PT: 11.4 s
Rattus norvegicus [19]
  Activity: inactive
Rattus norvegicus [20]
  Activity: 61%
Rattus norvegicus [21]
  PT: 12.7 s
Rattus norvegicus [22]
  Activity: 350.3%
Rattus norvegicus [23]
  Activity: 366.3%
Rattus norvegicus [6]
  Activity: 59.8%
Rattus norvegicus [24]
  PT: 12 s
Rattus norvegicus [25]
  Activity: 73.3%
Rattus norvegicus [26]
  PT: 108.4 s
